Experimental data from patent US9862684B2, “Modulation of K2P channels” (The Regents of the University of California, priority 2013, dated 2018).

Biological target: T1, K2P2.1 (TREK-1) W275S (Mus musculus, UniProt P97438, W290S)
T1 construct: expressed in transfected cells; host or cells: Xenopus oocytes
T1 sequence (P97438 1-411 isoform P97438-2 W275S): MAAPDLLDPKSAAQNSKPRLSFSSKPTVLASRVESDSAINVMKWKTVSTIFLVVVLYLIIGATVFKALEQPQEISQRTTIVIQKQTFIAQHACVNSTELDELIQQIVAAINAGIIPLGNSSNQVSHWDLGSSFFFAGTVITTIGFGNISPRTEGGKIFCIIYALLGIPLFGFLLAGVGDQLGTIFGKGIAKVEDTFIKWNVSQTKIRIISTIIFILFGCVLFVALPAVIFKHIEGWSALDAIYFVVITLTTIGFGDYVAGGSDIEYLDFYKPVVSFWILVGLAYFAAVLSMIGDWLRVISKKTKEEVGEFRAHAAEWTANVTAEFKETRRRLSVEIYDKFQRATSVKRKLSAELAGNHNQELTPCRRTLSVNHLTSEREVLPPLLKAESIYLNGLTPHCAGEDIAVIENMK
Experiment: Two-electrode voltage clamp, Xenopus oocytes, C-type gate mutant W275S
Assay type: cell-based, Murine
Experimental: I-V curves were measured by two-electrode voltage clamp of Xenopus oocytes in b, 90 mM [K^+]o. or c-e, 2 mM [K^+]o. […] Data (were measured at 20 mV (90 mM [K^+]o) or 0 mV (2 mM [K^+]o), normalized to basal channel activity, and fitted to the Hill equation. Error bars indicate s.e., n≧6, N≧2.
Murine K2P channels were cloned into pGEMHE/pMO {Bagriantsev, 2011}, IRES-GFP (Invitrogen), or pYES2-MET25 (high copy 2μ, URA3) {Minor, 1999} for expression in oocytes, HEK-293T cells, and yeast, respectively, using standard molecular biology procedures, and verified by DNA sequencing.
Two-electrode voltage clamp recordings were performed from defolliculated stage V-VI Xenopus oocytes 24-48 hours after injection with 0.015-6.0 ng cRNA, using microelectrodes (0.3-3.0 MΩ) filled with 3M KCl. Data was acquired using the GeneClamp 500B (MDS Analytical Technologies) amplifier controlled by the pClamp software (Molecular Devices), and digitized at 1 kHz using Digidata 1332A (MDS Analytical Technologies). Recording solutions (mM): 2K (96 NaCl, 2 KCl, 1.8 CaCl2, 2 MgCl2), 90K (90 KCl, 8 NaCl, 1.8 CaCl2, 2 MgCl2), were buffered 5 mM HEPES pH 7.4. For K2P recordings, currents we elicited by a 1 second long ramp from −150 to +50 mV from a holding potential of −80 mV (2K), or −100 to +50 mV from a holding potential of 0 mV (90K). […]

SMILES: CC1(C)c2cc(Cl)ccc2N(CCc2nnn[nH]2)c2ccc(Cl)cc21 [ML67-33, 2,7-dichloro-9,9-dimethyl-10-[2-(1H-tetrazol-5-yl)ethyl]acridine]
- EC50: 21.8 ± 1.3 µM
- Emax (fold): 5.1 ± 0.6 fold
